Results reported in US20230321025A1, “METHOD AND COMPOUND FOR THE TREATMENT AND ELIMINATION OF AN IMMUNODEFICIENCY CONDITION” (priority 2020, published 2023).
Converted amounts (≈) assume the structure as drawn. “And” between values parts separate entries of the source, which are not always exact repeats. Identical values can stand only once. Like-named read-outs stand apart in the source and are kept apart here.

How the values were obtained:
HIV-1 (RF) = experiment: microbe, parasite or virus in culture; type: cell-based; conditions: for Efficacy testing, optical density of single wells: listed as R2K18001 (90I)
Description: (§1) This assay was used to test the effectiveness of anti-HIV drug monotherapy in the established T-cell line CEM-SS infected with HIV-1RF, HIV-1IIIb, HIV-2ROD, or other cytolytic variants of HIV.
(§2) The drugs were solubilized in DMSO (dimethyl sulfoxide). […] CEM-SS cells were in logarithmic growth phase at the time of experimentation. Virus (HIV-1RF) stocks that past the necessary quality controls (killing effect on the type of cells used, limited variability, etc) were thawed and maintained on ice until required for addition.
(§3) Half-log serial dilutions of the antiviral agent or compound of the invention, H2K1001 (90i), were made in tissue culture media (RPMI 1640 without phenol red, supplemented with 10% heat inactivated fetal bovine serum, 1% L-Glutamine, 1% Pen/Strep and 50 ug/ml gentimycin). Virus, cell, drug and diluent (ethanol) controls were included for these tests. Virus was added after cells and drugs were mixed. Cell, drug, and virus containing cultures were incubated for six (6) days without additional feeding at which time the cultures were evaluated macroscopically and microscopically for cell toxicity, and the tetrazolium salt […] was added for quantitation by the colorimetric determination of formazan production (optical density).
(§4) Drug efficacy and cytotoxicity effects were determined six days after infection by the metabolic reduction of the tetrazolium salt XTT to its‘ formazan by surviving cells and was quantitated by determination of optical density at 450 nm with background subtraction at 650 nm (Tables 1-4).
(§5) The drug plate analysis reports from this assay are provided below in Tables 1-4. Calculated endpoints (EC50, etc.) were determined using Cho and Cho Median Effect Equation (Daids Virology Manual for HIV Laboratories, Compiled by The Division of Aids, National Institute of Allergy and Infectious Diseases, National Institutes of Health and Collaborating Investigators, Version January 1997).

[1] = test system: CEM-SS T-lymphoblastoid cells; experiment: Drug-induced cytotoxicity in CEM-SS cells (tetrazolium reduction); conditions: for Toxicity testing, mean optical density: human, 6 days
Description: as §1, §2, §3, §4, §5

HIV-1 (P2) = experiment: Antiviral drug assay in PBMC (supernatant p24); type: cell-based; conditions: for p24 testing data, single readings: listed as H2K-1001 (900); for EC50: Human immunodeficiency virus 1, PBMC
Method: Drug efficacy was determined by the production of supernatant HIV-1 p24. Drug-induced cytotoxicity was determined by the metabolic reduction of tetrazolium salts (MTS; Promega).
The antiviral drug or agent of the invention, H2K-1001 (90i), was solubilized. PBMCs, stimulated with PHA (phytohemagglutinin) for three days were employed throughout. Virus stocks (U.S. Clinical isolates) grown in PBMCs only, that past the necessary quality controls (i.e., replicate to high titer in PBMCs and meet the requirements as to genotype and phenotype) were rapidly thawed and maintained on ice until required for infection.
Virus and cell controls were included on each test plate. Virus was added after cells and drugs were mixed. Cell, drug and virus containing cultures were incubated for seven (7) days with an interim feeding at day three or four.
Supernatants were sampled at seven days for p24 determination by antigen capture ELISA. Cytotoxicity was measured by the metabolic reduction of the tetrazolium salt according to the manufacturer’s (Promega) recommendations.
The drug analysis reports from these studies are provided below in Tables 7-10. Efficacy (EC50) and viability (IC50) determinations were made using Cho and Cho Median Effect Equation, as noted above. Efficacy is expressed as the 50% effective concentration (EC50) and drug induced toxicity as the 50% inhibitory concentration (IC50).

SMILES: O=C(OCCOCCOC(=O)c1ccccc1)c1ccccc1 [90I, diethylene glycol dibenzoate]
- Efficacy % CC (HIV-1 (RF); 0.01 ug/ml): 42 % CC
- Efficacy testing, mean optical density (HIV-1 (RF); 0.01 ug/ml): 1.0282
- Efficacy testing, optical density of single wells (HIV-1 (RF); 0.01 ug/ml): 0.9892 and 1.0238 and 1.0477
- Efficacy % CC (HIV-1 (RF); 0.03 ug/ml): 80 % CC
- Efficacy testing, mean optical density (HIV-1 (RF); 0.03 ug/ml): 1.9368
- Efficacy testing, optical density of single wells (HIV-1 (RF); 0.03 ug/ml): 2.0839 and 1.6926 and 2.0343
- Efficacy % CC (HIV-1 (RF); 0.1 ug/ml): 87 % CC
- Efficacy testing, mean optical density (HIV-1 (RF); 0.1 ug/ml): 2.1073
- Efficacy testing, optical density of single wells (HIV-1 (RF); 0.1 ug/ml): 2.2196 and 2.0140 and 2.0883
- Efficacy % CC (HIV-1 (RF); 0.3 ug/ml): 83 % CC
- Efficacy testing, mean optical density (HIV-1 (RF); 0.3 ug/ml): 2.0091
- Efficacy testing, optical density of single wells (HIV-1 (RF); 0.3 ug/ml): 2.1099 and 1.8158 and 2.1016
- Efficacy % CC (HIV-1 (RF); 1 ug/ml): 84 % CC
- Efficacy testing, mean optical density (HIV-1 (RF); 1 ug/ml): 2.0264
- Efficacy testing, optical density of single wells (HIV-1 (RF); 1 ug/ml): 2.2771 and 1.9186 and 1.8914
- Efficacy % CC (HIV-1 (RF); 3 ug/ml): 84 % CC
- Efficacy testing, mean optical density (HIV-1 (RF); 3 ug/ml): 2.0459
- Efficacy testing, optical density of single wells (HIV-1 (RF); 3 ug/ml): 2.2499 and 1.9311 and 1.9576
- Efficacy % CC (HIV-1 (RF); 10 ug/ml): 82 % CC
- Efficacy testing, mean optical density (HIV-1 (RF); 10 ug/ml): 1.9797
- Efficacy testing, optical density of single wells (HIV-1 (RF); 10 ug/ml): 2.0385 and 2.0038 and 1.8968
- Efficacy % CC (HIV-1 (RF); 33 ug/ml): 86 % CC
- Efficacy testing, mean optical density (HIV-1 (RF); 33 ug/ml): 2.0805
- Efficacy testing, optical density of single wells (HIV-1 (RF); 33 ug/ml): 2.1945 and 1.9560 and 2.0909
- Efficacy % CC (HIV-1 (RF); 100 ug/ml): 88 % CC
- Efficacy testing, mean optical density (HIV-1 (RF); 100 ug/ml): 2.1221
- Efficacy testing, optical density of single wells (HIV-1 (RF); 100 ug/ml): 2.2450 and 1.9588 and 2.1625
- therapeutic index (TI=IC50/EC50) (HIV-1 (RF); HIV-1 RF in CEM-SS): greater than 5000
- EC50 (HIV-1 (RF); Human immunodeficiency virus 1, CEM-SS, read-out: 50% effective concentration (EC50), RF laboratory strain of HIV-1 in CEM-SS): ~0.02 µg/mL (≈ 0.0636 µM)
- Toxicity % CC ([1]; 0.01 ug/ml): 100 % CC
- Toxicity % CC ([1]; 0.03 ug/ml): 103 % CC
- Toxicity % CC ([1]; 0.1 ug/ml): 104 % CC
- Toxicity % CC ([1]; 0.3 ug/ml): 100 % CC
- Toxicity % CC ([1]; 1 ug/ml): 100 % CC
- Toxicity % CC ([1]; 3 ug/ml): 99 % CC
- Toxicity % CC ([1]; 10 ug/ml): 93 % CC
- Toxicity % CC ([1]; 33 ug/ml): 94 % CC
- Toxicity testing, optical density of single wells ([1]; 33 ug/ml, listed as H2K1001 (90I)): 2.3330
- Toxicity % CC ([1]; 100 ug/ml): 106 % CC
- 50% inhibitory concentration, IC50 (drug induced toxicity) ([1]; CEM-SS, high test concentration 100 ug/ml): greater than 100 ug/ml
- IC50 ([1]; Homo sapiens, CEM-SS): > 100 µg/mL
- Toxicity testing, mean optical density ([1]; 0.01 ug/ml): 2.4317
- Toxicity testing, mean optical density ([1]; 0.03 ug/ml): 2.4969
- Toxicity testing, mean optical density ([1]; 0.1 ug/ml): 2.5149
- Toxicity testing, mean optical density ([1]; 0.3 ug/ml): 2.4130
- Toxicity testing, mean optical density ([1]; 1 ug/ml): 2.4177
- Toxicity testing, mean optical density ([1]; 3 ug/ml): 2.4007
- Toxicity testing, mean optical density ([1]; 33 ug/ml): 2.2879
- Toxicity testing, mean optical density ([1]; 100 ug/ml): 2.5604
- Efficacy % p24 Reduction (HIV-1 (P2); 0.01 ug/ml): 23%
- p24 testing data, mean reading (HIV-1 (P2); 0.01 ug/ml): 2.2023
- p24 testing data, single readings (HIV-1 (P2); 0.01 ug/ml): 2.100 and 2.2130 and 2.2937
- Efficacy % p24 Reduction (HIV-1 (P2); 0.03 ug/ml): 25%
- p24 testing data, mean reading (HIV-1 (P2); 0.03 ug/ml): 2.1373
- p24 testing data, single readings (HIV-1 (P2); 0.03 ug/ml): 2.1210 and 1.9460 and 2.3450
- Efficacy % p24 Reduction (HIV-1 (P2); 0.10 ug/ml): 36%
- p24 testing data, mean reading (HIV-1 (P2); 0.10 ug/ml): 1.8337
- p24 testing data, single readings (HIV-1 (P2); 0.10 ug/ml): 1.9461 and 1.8101 and 1.7450
- Efficacy % p24 Reduction (HIV-1 (P2); 0.33 ug/ml): 36%
- p24 testing data, mean reading (HIV-1 (P2); 0.33 ug/ml): 1.8344
- p24 testing data, single readings (HIV-1 (P2); 0.33 ug/ml): 1.9451 and 1.7120 and 1.8460
- Efficacy % p24 Reduction (HIV-1 (P2); 1 ug/ml): 53%
- p24 testing data, mean reading (HIV-1 (P2); 1 ug/ml): 1.3316
- p24 testing data, single readings (HIV-1 (P2); 1 ug/ml): 1.4266 and 1.4567 and 1.1116
- p24 testing data, mean reading (HIV-1 (P2); 3 ug/ml): 0.3713
- Efficacy % p24 Reduction (HIV-1 (P2); 3 ug/ml (3.2 in Table 11)): 87%
- p24 testing data, single readings (HIV-1 (P2); 3 ug/ml): 0.4510 and 0.3219 and 0.3410
- Efficacy % p24 Reduction (HIV-1 (P2); 10 ug/ml): 95%
- p24 testing data, mean reading (HIV-1 (P2); 10 ug/ml): 0.1397
- p24 testing data, single readings (HIV-1 (P2); 10 ug/ml): 0.1090 and 0.1220 and 0.1874
- Efficacy % p24 Reduction (HIV-1 (P2); 32 ug/ml): 94%
- p24 testing data, mean reading (HIV-1 (P2); 32 ug/ml): 0.1690
- Efficacy % p24 Reduction (HIV-1 (P2); 100 ug/ml): 93%
- p24 testing data, mean reading (HIV-1 (P2); 100 ug/ml): 0.1946
- p24 testing data, single readings (HIV-1 (P2); 100 ug/ml): 0.1530 and 0.1820 and 0.2488
- TI (HIV-1 (P2); HIV-1 P2 in PBMC): greater than 125
- EC50 (HIV-1 (P2); HIV-1 P2 clinical isolate in PBMC, read-out: EC50): ~0.8 µg/mL (≈ 2.55 µM)
- EC50 (HIV-1 (P2); PBMC, virus printed HIV-IRF, read-out: BC50 (the source's name)): 0.8 µg/mL (≈ 2.55 µM)
